Consider 27 compounds from patent publication US11702404B2, “GLP-1R modulating compounds” (priority 2019, dated 2023).

In data set [1] the target is GLP-1R (Homo sapiens, UniProt P43220). In words: GLP-1R activation: cAMP increase in CHO cells stably expressing GLP-1R. It counts as cell-based. Particulars: read-out: EC50.
A short description of data set [2]: Microsomal stability, human liver microsomes (predicted hepatic clearance). Particulars: predicted from in vitro microsomal stability data.
Setting [3] is: cAMP increase, CHO cells stably expressing GLP-1R, 10 point dose response, 30 minutes incubation.

Like-named read-outs stand apart in the source and are kept apart here.

Sequence of GLP-1R (P43220 24-463): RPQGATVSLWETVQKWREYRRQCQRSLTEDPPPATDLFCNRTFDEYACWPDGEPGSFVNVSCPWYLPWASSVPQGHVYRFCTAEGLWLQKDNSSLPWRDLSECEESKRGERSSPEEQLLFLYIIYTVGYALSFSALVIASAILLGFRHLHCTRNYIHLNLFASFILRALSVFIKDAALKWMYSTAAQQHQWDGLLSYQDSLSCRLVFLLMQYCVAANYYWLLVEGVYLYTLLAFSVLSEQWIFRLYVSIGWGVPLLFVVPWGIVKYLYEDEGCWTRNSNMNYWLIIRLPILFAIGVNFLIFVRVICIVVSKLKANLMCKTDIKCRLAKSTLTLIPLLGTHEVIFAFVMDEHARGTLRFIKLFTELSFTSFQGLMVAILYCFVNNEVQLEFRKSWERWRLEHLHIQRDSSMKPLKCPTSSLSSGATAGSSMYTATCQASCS

In general, EC50 refers to the concentration that produces a half-maximal response. Consider `COCCn1c(Cc2cc(F)c(-c3cccc(OCc4ccc(C(F)F)cc4)n3)cc2F)nc2ccc(C(=O)O)cc21` [Example 809], for which the EC50 in data set [1] (setting [3]) is 1.05 nM. Also, the “Predicted Hepatic Clearance (Pred. Cl.)” value in data set [2] was 2.83 mL/min/kg.

In the case of `O=C(O)c1ccc2nc(Cc3cc(F)c(-c4cccc(OCc5ccc(C(F)F)cc5F)n4)cc3F)n(Cc3ccon3)c2c1` [Example 609], the EC50 in data set [1] (setting [3]) was 0.15 nM. For the same compound, the “Predicted Hepatic Clearance (Pred. Cl.)” value in data set [2] was 1.83 mL/min/kg.

Take `COc1cc(C#N)ccc1COc1nccc(-c2cc(F)c(Cc3nc4ccc(C(=O)O)cc4n3CC3(CF)CC3)cc2F)n1` [Example 430, 2-(4-(2-((4-cyano-2-methoxybenzyl)oxy)pyrimidin-4-yl)-2,5-difluorobenzyl)-1-((1-(fluoromethyl)cyclopropyl)methyl)-1H-benzo[d]imidazole-6-carboxylic acid]: in data set [1] (setting [3]), the EC50 came out at 0.67 nM. Further, the “Predicted Hepatic Clearance (Pred. Cl.)” value in data set [2] was below 1.83 mL/min/kg.

Regarding `N#Cc1ccc(COc2cccc(-c3ccc(Cc4nc5ccc(C(=O)O)cc5n4CC4(n5cncn5)CC4)c(F)c3)n2)c(F)c1` [Example 313, 1-((1-(1H-1,2,4-triazol-1-yl)cyclopropyl)methyl)-2-(4-(6-((4-cyano-2-fluorobenzyl)oxy)pyridin-2-yl)-2-fluorobenzyl)-1H-benzo[d]imidazole-6-carboxylic acid], in data set [1] (setting [3]), the EC50 was determined as 3.25 nM. In addition, the “Predicted Hepatic Clearance (Pred. Cl.)” value in data set [2] was 7.17 mL/min/kg.

For `CC(=O)N1CCC[C@@H]1Cn1c(Cc2cc(F)c(-c3cccc(OCc4ccc(C#N)cc4F)n3)cc2F)nc2ccc(C(=O)O)cc21` [Example 591, (R)-1-((1-acetylpyrrolidin-2-yl)methyl)-2-(4-(6-((4-cyano-2-fluorobenzyl)oxy)pyridin-2-yl)-2,5-difluorobenzyl)-1H-benzo[d]imidazole-6-carboxylic acid], the EC50 in data set [1] turned out to be 0.17 nM. In addition, the “Predicted Hepatic Clearance (Pred. Cl.)” value in data set [2] is 7 mL/min/kg.

Regarding `COCCn1c(Cc2cc(F)c(-c3cccc(OCc4cccc(-c5ncccn5)c4)n3)cc2F)nc2ccc(C(=O)O)cc21` [Example 909], in data set [1] (setting [3]), the EC50 was 2.25 nM. In addition, the “Predicted Hepatic Clearance (Pred. Cl.)” value in data set [2] was 3.67 mL/min/kg.

Regarding `COCCn1c(Cc2c(F)cc(-c3ccnnc3OCc3ccc(C#N)cc3F)cc2F)nc2ccc(C(=O)O)cc21` [Example 103, 2-[[4-[3-[(4-cyano-2-fluoro-phenyl)methoxy]pyridazin-4-yl]-2,6-difluoro-phenyl]methyl]-3-(2-methoxyethyl)benzimidazole-5-carboxylic acid], in data set [1] (setting [3]), the EC50 turned out to be 4980 nM. Besides, the “Predicted Hepatic Clearance (Pred. Cl.)” value in data set [2] was 5.17 mL/min/kg.

Regarding `COC[C@H]1C[C@@H](n2c(Cc3cc(F)c(-c4cccc(OCc5ccc(C#N)cc5F)n4)cc3F)nc3ccc(C(=O)O)cc32)C1` [Example 734], the EC50 in data set [1] (setting [3]) turned out to be 168 nM. Also, in data set [2], the “Predicted Hepatic Clearance (Pred. Cl.)” value was 8 mL/min/kg.

Consider `COc1cc(C#N)ccc1COc1nccc(-c2cc(F)c(Cc3nc4ccc(C(=O)O)cc4n3CC3(CC#N)CC3)cc2F)n1` [Example 417, 2-(4-(2-((4-cyano-2-methoxybenzyl)oxy)pyrimidin-4-yl)-2,5-difluorobenzyl)-1-((1-(cyanomethyl)cyclopropyl)methyl)-1H-benzo[d]imidazole-6-carboxylic acid], for which the EC50 in data set [1] (setting [3]) is 0.1 nM. Besides, the “Predicted Hepatic Clearance (Pred. Cl.)” value in data set [2] is 12.7 mL/min/kg.

Take `COCCn1c(Cc2ccc(-c3cccc(OCc4cccc5ncsc45)n3)cc2F)nc2ccc(C(=O)O)cc21` [Example 148, 2-(4-(6-(benzo[d]thiazol-7-ylmethoxy)pyridin-2-yl)-2-fluorobenzyl)-1-(2-methoxyethyl)-1H-benzo[d]imidazole-6-carboxylic acid]: the EC50 in data set [1] (setting [3]) was determined as 2050 nM. Further, in data set [2], the “Predicted Hepatic Clearance (Pred. Cl.)” value is 11.5 mL/min/kg.

For `CO[C@@H]1CCC[C@@H]1n1c(Cc2cc(F)c(-c3cccc(OCc4ccc(C#N)cc4F)n3)cc2F)nc2ccc(C(=O)O)cc21` [Example 708], the EC50 in data set [1] (setting [3]) came to 0.64 nM. Further, in data set [2], the “Predicted Hepatic Clearance (Pred. Cl.)” value is 7.5 mL/min/kg.

Regarding `COCCn1c(Cc2ccc(-c3cccc(OCc4ccc(C#N)cc4F)n3)cc2C#CC(C)(C)O)nc2ccc(C(=O)O)cc21` [Example 419, 2-(4-(6-((4-cyano-2-fluorobenzyl)oxy)pyridin-2-yl)-2-(3-hydroxy-3-methylbut-1-yn-1-yl)benzyl)-1-(2-methoxyethyl)-1H-benzo[d]imidazole-6-carboxylic acid], the EC50 in data set [1] (setting [3]) is 20.7 nM. In addition, the “Predicted Hepatic Clearance (Pred. Cl.)” value in data set [2] is 7.33 mL/min/kg.

Regarding `COCCC1(Cn2c(Cc3cc(F)c(-c4cccc(OCc5ccc(C#N)cc5F)n4)cc3F)nc3ccc(C(=O)O)cc32)CC1` [Example 739], the EC50 in data set [1] (setting [3]) came to 0.74 nM. Further, the “Predicted Hepatic Clearance (Pred. Cl.)” value in data set [2] was 1.83 mL/min/kg.

Take `COCCn1c(Cc2cc(F)c(-c3cccc(OCc4ccc(-c5ccn(C)n5)cc4F)n3)cc2F)nc2ccc(C(=O)O)cc21` [Example 917]: in data set [1] (setting [3]), the EC50 is 56.7 nM. In addition, the “Predicted Hepatic Clearance (Pred. Cl.)” value in data set [2] was 1.83 mL/min/kg.

On to `N#Cc1ccc(COc2cccc(-c3cc(F)c(Cc4nc5c(F)cc(C(=O)O)cc5n4CC4(CF)CC4)cc3F)n2)c(F)c1` [Example 448, 2-(4-(6-((4-cyano-2-fluorobenzyl)oxy)pyridin-2-yl)-2,5-difluorobenzyl)-4-fluoro-1-((1-(fluoromethyl)cyclopropyl)methyl)-1H-benzo[d]imidazole-6-carboxylic], for which the EC50 in data set [1] (setting [3]) was found to be 1.23 nM. Besides, in data set [2], the “Predicted Hepatic Clearance (Pred. Cl.)” value is below 1.83 mL/min/kg.

As to `CO[C@H]1C[C@H](n2c(Cc3cc(F)c(-c4cccc(OCc5ccc(C#N)cc5F)n4)cc3F)nc3ccc(C(=O)O)cc32)C1` [Example 567, 2-(4-(6-((4-cyano-2-fluorobenzyl)oxy)pyridin-2-yl)-2,5-difluorobenzyl)-1-((1r,3r)-3-methoxycyclobutyl)-1H-benzo[d]imidazole-6-carboxylic acid], the EC50 in data set [1] (setting [3]) turned out to be 1130 nM. The “Predicted Hepatic Clearance (Pred. Cl.)” value in data set [2] was 7.67 mL/min/kg.

`COC1(Cn2c(Cc3cc(F)c(-c4cccc(OCc5ccc(C#N)cc5F)n4)cc3F)nc3ccc(C(=O)O)cc32)CN(C2COC2)C1` [Example 696]: in data set [1] (setting [3]), the EC50 turned out to be 592 nM. Also, in data set [2], the “Predicted Hepatic Clearance (Pred. Cl.)” value was 10.8 mL/min/kg.

Take `COCCn1c(Cc2ccc(-c3cccc(OCc4ccc(C#N)c5ccoc45)n3)cc2F)nc2ccc(C(=O)O)cc21` [Example 135, 2-(4-(6-((4-cyanobenzofuran-7-yl)methoxy)pyridin-2-yl)-2-fluorobenzyl)-1-(2-methoxyethyl)-1H-benzo[d]imidazole-6-carboxylic acid]: in data set [1] (setting [3]), the EC50 was determined as 1.76 nM. Further, the “Predicted Hepatic Clearance (Pred. Cl.)” value in data set [2] was below 1.83 mL/min/kg.

For `COCCn1c(Cc2cc(F)c(-c3cccc(OCc4ccc(Cl)nc4)n3)cc2F)nc2ccc(C(=O)O)cc21` [Example 813], in data set [1] (setting [3]), the EC50 stood at 2.98 nM. Further, the “Predicted Hepatic Clearance (Pred. Cl.)” value in data set [2] was 1.83 mL/min/kg.

As to `COC(Cn1c(Cc2ccc(-c3cccc(OCc4ccc(C#N)cc4F)n3)cc2F)nc2ccc(C(=O)O)cc21)C(=O)Nc1nccs1` (single isomer, unassigned) [Example 329, 2-(4-(6-((4-cyano-2-fluorobenzyl)oxy)pyridin-2-yl)-2-fluorobenzyl)-1-(2-methoxy-3-oxo-3-(thiazol-2-ylamino)propyl)-1H-benzo[d]imidazole-6-carboxylic acid], the EC50 in data set [1] (setting [3]) was 286 nM. Besides, the “Predicted Hepatic Clearance (Pred. Cl.)” value in data set [2] is 7.83 mL/min/kg.

In the case of `N#CCC1(Cn2c(Cc3cc(F)c(-c4ccnc(OCc5ccc(C#N)cc5F)n4)cc3F)nc3ccc(C(N)=O)nc32)CC1` [Example 599, 2-(4-(2-((4-cyano-2-fluorobenzyl)oxy)pyrimidin-4-yl)-2,5-difluorobenzyl)-3-((1-(cyanomethyl)cyclopropyl)methyl)-3H-imidazo[4,5-b]pyridine-5-carboxamide], in data set [1] (setting [3]), the EC50 was found to be 0.98 nM. In data set [2], the “Predicted Hepatic Clearance (Pred. Cl.)” value was 12.3 mL/min/kg.

As for `N#Cc1ccc(COc2cccc(-c3ccc(Cc4nc5ccc(C(=O)O)cc5n4C[C@H]4CCOC4)c(F)c3)n2)c(F)c1` [Example 196, (R)-2-(4-(6-((4-cyano-2-fluorobenzyl)oxy)pyridin-2-yl)-2-fluorobenzyl)-1-((tetrahydrofuran-3-yl)methyl)-1H-benzo[d]imidazole-carboxylic acid], in data set [1] (setting [3]), the EC50 turned out to be 4.61 nM. Moreover, the “Predicted Hepatic Clearance (Pred. Cl.)” value in data set [2] was 5.83 mL/min/kg.

Regarding `N#Cc1cc(F)c(COc2cccc(-c3cc(F)c(Cc4nc5ccc(C(=O)O)cc5n4C[C@@H]4CCO4)cc3F)n2)cc1F` [Example 798], in data set [1] (setting [3]), the EC50 was found to be 0.12 nM. Further, the “Predicted Hepatic Clearance (Pred. Cl.)” value in data set [2] was 5.33 mL/min/kg.

Turning to `COCCn1c(Cc2cc(F)c(-c3cccc(OCc4ccc(C(F)F)nc4)n3)cc2F)nc2ccc(C(=O)O)cc21` [Example 860], in data set [1] (setting [3]), the EC50 turned out to be 22.6 nM. In data set [2], the “Predicted Hepatic Clearance (Pred. Cl.)” value is 1.83 mL/min/kg.

As to `N#CCC1(Cn2c(Cc3c(F)cc(-c4ccc(F)c(OCc5ccc(C#N)cc5F)n4)cc3F)nc3ccc(C(=O)O)cc32)CC1` [Example 154, 2-(4-(6-((4-cyano-2-fluorobenzyl)oxy)-5-fluoropyridin-2-yl)-2,6-difluorobenzyl)-1-((1-(cyanomethyl)cyclopropyl)methyl)-1H-benzo[d]imidazole-6-carboxylic acid], the EC50 in data set [1] (setting [3]) came out at 0.51 nM. For the same compound, in data set [2], the “Predicted Hepatic Clearance (Pred. Cl.)” value is 4.83 mL/min/kg.

For `COCCn1c(Cc2ccc(-c3cccc(OCc4ccc(C#N)cc4OCC(F)F)n3)cc2F)nc2ccc(C(=O)O)cc21` [Example 245, 2-(4-(6-((4-cyano-2-(2,2-difluoroethoxy)benzyl)oxy)pyridin-2-yl)-2-fluorobenzyl)-1-(2-methoxyethyl)-1H-benzo[d]imidazole-6-carboxylic acid], in data set [1] (setting [3]), the EC50 was 140 nM. For the same compound, the “Predicted Hepatic Clearance (Pred. Cl.)” value in data set [2] was 4.5 mL/min/kg.

For the compound `N#Cc1ccc(COc2cccc(-c3cc(F)c(Cc4nc5ccc(C(=O)O)cc5n4CC4(F)CCOCC4)cc3F)n2)c(F)c1` [Example 713], the EC50 in data set [1] (setting [3]) stood at 5.76 nM. Further, in data set [2], the “Predicted Hepatic Clearance (Pred. Cl.)” value was 2.5 mL/min/kg.
